In experiment [1] the target is T1, hCatK (Homo sapiens, UniProt P43235).
T1 sequence (P43235 115-329): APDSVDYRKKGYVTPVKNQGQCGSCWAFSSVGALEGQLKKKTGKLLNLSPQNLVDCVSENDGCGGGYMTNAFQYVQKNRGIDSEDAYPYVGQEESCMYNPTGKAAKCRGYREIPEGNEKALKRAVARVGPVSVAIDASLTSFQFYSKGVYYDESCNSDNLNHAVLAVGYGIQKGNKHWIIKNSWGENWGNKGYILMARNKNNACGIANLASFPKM
The experiment is described as follows: In vitro inhibition of purified human Cathepsin K (fluorogenic substrate Z-FR-AMC). In kind it is biochemical. Particulars: for IC50: purified human Cathepsin, 30 min incubation with inhibitor, mean ± SD, triplicate. Here is the method: (§1) Cathepsin (e.g. Cathepsin K/L/V/S/B), in particular purified human Cathepsin, was diluted in freshly prepared reaction buffer consisting of 50 mM MES pH 5.5, 25 mM EDTA and 2.5 mM DTT. 0.05% Tween20 (v/v) may be added to the reaction buffer of the Cathepsin K.
(§2) Activity assays may be conducted in a suitable manner. In the experiments described herein, the assays were typically conducted in Corning 3820 Low Volume 384 Well Assay Plate with a final assay volume of 20 μL. Plates were shaken at 600 rpm for 1 minute and centrifuged at 1000 rpm for 1 minute prior to incubation. Cathepsin activity was quantified using synthetic fluorogenic peptide substrate Z-FR-AMC (Cath K, L, V), Z-RR-AMC (Cath B) or Z-FVR-AMC (Cath S). Fluorescence intensity (λex=350 nm, λem=440 nm) was measured every 2 minutes in arbitrary units (A.U.) on a CLARIOstar (BMG Labtech) microplate reader and values were converted to product formation [AMC]. […] Measurements were performed in triplicate.
(§3) Inhibitors (200 nL, 100× final concentration in DMSO) were diluted in reaction buffer (10 μL). Purified human Cathepsin (5 μL, 4× final concentration) was added and the reaction mixture was incubated for 30 min at room temperature. Fluorogenic substrate (5 μL, 4× final concentration) was added and fluorescence intensity was measured every 2 minutes for 30-90 minutes.
(§4) The potency of the compounds as CatK inhibitors was assessed in an in vitro inhibition assay on purified human CatK (Table 2). Cathepsin was incubated with inhibitor, and the hydrolysis of substrate was initiated by addition of substrate.

Another experiment has as its target hCatL (Homo sapiens, UniProt P07711). The experiment is described as follows: In vitro inhibition of purified human Cathepsin L (Z-FR-AMC). It counts as biochemical. Particulars: 30 min incubation with inhibitor, mean ± SD, triplicate. As for the experimental part:
as §1
(§5) Activity assays may be conducted in a suitable manner. […] Plates were shaken at 600 rpm for 1 minute and centrifuged at 1000 rpm for 1 minute prior to incubation. Cathepsin activity was quantified using synthetic fluorogenic peptide substrate Z-FR-AMC (Cath K, L, V), Z-RR-AMC (Cath B) or Z-FVR-AMC (Cath S). Fluorescence intensity (λex=350 nm, λem=440 nm) was measured every 2 minutes in arbitrary units (A.U.) on a CLARIOstar (BMG Labtech) microplate reader and values were converted to product formation [AMC]. […] Measurements were performed in triplicate.
as §3, §4

Experiment [2] deals with T1, hCatK. The experiment is described as follows: Kinetic evaluation of covalent inhibitors on purified hCatK. It counts as biochemical. Particulars: 100 pM hCatK, 4 μM Z-FR-AMC, 26° C., reaction started by addition of CatK; for Ki: read-out: Kl. As for the experimental part: The reaction kinetics of irreversible covalent inhibitor compounds may be assed in the following manner. Inhibitors (200 nL, 100× final concentration in DMSO) were diluted in reaction buffer (10 μL). Fluorogenic substrate (5 μL, 4× final concentration) was added and the reaction was started by addition of Cathepsin (5 μL, 4× final concentration). Fluorescence intensity was measured every 2 minutes for 60 minutes and fitted to equation I to obtain the Kobs. The obtained values were plotted against the inhibitor concentration and fitted to equation II to obtain kinetic parameters Kinact (rate of covalent bond formation) and Ki.
Kinetic evaluation of irreversible covalent inhibitors was conducted by following the progress curve of inhibition when the hydrolysis of substrate is started by addition of the enzyme (instead of incubating the protease with the inhibitor prior to addition of the substrate). From this curve the maximum rate of covalent bond formation (Kinact) could be determined (Table 4).

Another experiment concerns the target hCatS (Homo sapiens, UniProt P25774). The experiment is described as follows: In vitro inhibition of purified human Cathepsin S (Z-FVR-AMC). In kind it is biochemical. Particulars: 30 min incubation with inhibitor, mean ± SD, triplicate. As for the experimental part: as §1, §2, §3, §4
The target in a further experiment is hCatV (Homo sapiens, UniProt O60911). The experiment is described as follows: In vitro inhibition of purified human Cathepsin V (Z-FR-AMC). In kind it is biochemical. Particulars: 30 min incubation with inhibitor, mean ± SD, triplicate. Here is the method:
as §1, §5, §3, §4

The target in another experiment is hCatB (Homo sapiens, UniProt P07858). The experiment is described as follows: In vitro inhibition of purified human Cathepsin B (Z-RR-AMC). Particulars: 30 min incubation with inhibitor, mean ± SD, triplicate. In kind it is biochemical. Here is the method:
as §1, §5, §3, §4

Experiment [3] has as its target T1, hCatK. The experiment is described as follows: Jump dilution assay for reversibility of hCatK inhibition. It counts as biochemical. Particulars: 300× dilution into fluorogenic substrate solution. As for the experimental part: FIG. 3 provides a schematic overview of a jump dilution assay. A) Dose response curve for a 300-fold dilution of inhibitor concentration from full inhibition to full activity. B) Protocol and concentrations for incubation and dilution. C) Progress curves for hCatK proteolytic activity with inhibitor compounds ODN, 4, 5, 6 after dilution.
Reversibility of protease inhibition by an inhibitor may be assessed in a jump dilution assay. An exemplary jump dilution assay is provided in R. A. Copeland, A. Basavapathruni, M. Moyer, M. P. Scott, Anal. Biochem. 2011, 416, 206. In a jump dilution assay the protease (e.g. CatK) is incubated with inhibitor at high concentration to allow full active site occupation, and subsequently diluted, e.g. 300×, into fluorogenic substrate solution resulting in an inhibitor concentration corresponding with full protease activity. The hydrolysis of fluorogenic substrate is monitored over an extended time period, e.g. at least 60 minutes. […] The assay results may be compared with the results using a known irreversible inhibitor of the protease as a control. E-64 represents an established pan-Cathepsin irreversible inhibitor, suitable for use as a positive control with most cysteine protease Cathepsins.
Reversibility of hCatK inhibition was assessed in a jump dilution assay. Established pan-Cathepsin inhibitor E-64 was taken along as a control for irreversible inhibition. Purified hCatK was incubated with inhibitors at high concentration to allow full active site occupation, and subsequently diluted 300× into fluorogenic substrate solution resulting in an inhibitor concentration corresponding with full activity (FIG. 3).

A further experiment addresses T2, Cathepsin K (Homo sapiens, UniProt P43235).
T2 sequence (P43235 115-329): T1 sequence (P43235 115-329)
The experiment is described as follows: LC-MS of intact CatK and CatK-inhibitor complexes. It counts as binding. Here is the method:
The masses were determined from deconvoluted electrospray ionization mass spectra of CatK complexes. FIG. 4A to FIG. 4E each provide the result for a sample. In each of these FIGS. 4A to 4E the first panel provides the UPLC chromatogram, the second panel provides the electrospray ionization mass spectrum, and the third panel provides the corresponding deconvoluted electrospray ionization mass spectrum (average isotopes) with an indication of the measured mass of the predominant species. FIG. 4A provides the results obtained for intact CatK. FIG. 4B provides the results obtained for CatK.
Cathepsin K (3 μM) in reaction buffer ([…]) was incubated with inhibitor (100 μM) at 37° C. for 6 hours prior to analysis. 1 μL injections of the sample were made onto a XEVO-G2XSQTOF#YEA928 UPLC-MS system with a Waters Acquity CM detector. Chromatographic separation was carried out on a ACQUITY UPLC® Protein BEH C4 Column over a 12 minute gradient elution of 2% to 100% acetonitrile in water (0.1% formic acid) at a flow rate of 0.500 mL/min. For the first 4 minutes the flow was diverted to the waste to avoid contamination of the MS with high concentrations of buffer components. After 4 minutes, the elution flow was ionized with an ESI ionization source and measured on a XEVO-G2XSQTOF. The results were analyzed using MassLynx V4.1. The total mass of the complex was obtained by deconvolution of electrospray ionization mass spectrum envelope (average isotopes) with the MaxEnt1 function.
Cathepsin K was incubated with ODN, 4, 5 or 6 for 6 h to allow full covalent bond formation and submitted for measurement without any digestion steps, according to the method for LC-MS for intact CatK and CatK-inhibitor complexes described in the assays section above.

Consider four compounds from US12371400B2, “Cathepsin inhibitors” (ACADEMISCH ZIEKENHUIS LEIDEN (H.O.D.N. LUMC), priority 2017, dated 2025).

SMILES strings stand for the structures. Entries after “also recorded” stand apart in the source; their conditions may differ. Like-named read-outs stand apart in the source and are kept apart here.

Sequence of hCatS (P25774 115-331): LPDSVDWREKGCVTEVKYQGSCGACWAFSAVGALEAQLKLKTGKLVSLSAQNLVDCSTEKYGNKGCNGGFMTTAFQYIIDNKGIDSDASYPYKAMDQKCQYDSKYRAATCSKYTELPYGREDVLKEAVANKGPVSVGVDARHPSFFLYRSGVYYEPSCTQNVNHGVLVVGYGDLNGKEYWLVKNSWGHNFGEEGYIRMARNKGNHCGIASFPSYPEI
Sequence of hCatV (O60911 114-334): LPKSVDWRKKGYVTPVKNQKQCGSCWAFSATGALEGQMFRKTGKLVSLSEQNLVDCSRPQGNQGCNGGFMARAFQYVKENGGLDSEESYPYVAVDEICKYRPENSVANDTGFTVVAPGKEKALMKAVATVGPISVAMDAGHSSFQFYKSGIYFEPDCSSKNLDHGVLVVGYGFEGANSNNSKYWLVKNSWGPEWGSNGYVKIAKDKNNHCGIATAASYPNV
Sequence of hCatL (P07711 114-333): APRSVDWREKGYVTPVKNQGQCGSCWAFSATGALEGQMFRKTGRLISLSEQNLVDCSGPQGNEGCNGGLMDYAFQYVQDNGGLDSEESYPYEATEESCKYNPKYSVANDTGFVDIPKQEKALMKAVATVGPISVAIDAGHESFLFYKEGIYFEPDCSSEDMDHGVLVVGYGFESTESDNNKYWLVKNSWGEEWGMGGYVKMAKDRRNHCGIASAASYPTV

Broadly, the IC50 is the concentration at which inhibition is half-maximal. The low end stands for greater potency, the high end for weaker potency. What is called kinact is the maximal first-order rate at which the target is inactivated. As to `CC(C)C[C@H](NC(=O)[C@H]1O[C@@H]1C(=O)O)C(=O)NCCCCN=C(N)N` [Compound E-64, reference compound], on hCatK [1], the IC50 turned out to be 1.9 ± 0.032 nM. Moreover, at hCatL, half-maximal inhibition (IC50) was put at 3.5 ± 0.22 nM. In addition, on hCatK [2], the kinact was 0.081 min⁻¹, the kinact/Kl turned out to be 117000 M⁻¹ s⁻¹ and the Ki stood at 11.4 nM.
Regarding `CC(C)(F)C[C@H](N[C@@H](c1ccc(-c2ccc(S(C)(=O)=O)cc2)cc1)C(F)(F)F)C(=O)NCC#CBr` [Compound 6, (S)—N-(3-bromoprop-2-yn-1-yl)-4-fluoro-4-methyl-2-(((S)-2,2,2-trifluoro-1-(4′-(methylsulfonyl)-[1,1′-biphenyl]-4-yl)ethyl)amino)pentanamide], the “selectivity for CatK over structurally related human Cathepsins” value at hCatK [1] (in words, from Table 2) is listed as “all selectivity is lost”. Also, the concentration for half-maximal inhibition (IC50) stood at 46.9 ± 1.81 nM against hCatK [1]; 102 ± 5.14 nM against hCatL; 55.4 ± 2.94 nM at hCatS; 16.2 ± 0.883 nM against hCatV; 98.6 ± 5.88 nM against hCatB. In addition, at hCatK [3], the “reversibility of hCatK inhibition” value is on record as “irreversible”. Besides, on hCatK [2], the kinact/Kl came out at 1650 M⁻¹ s⁻¹. Also, on hCatK [2], the Ki came to 193 nM. In addition, the kinact at hCatK [2] (read-out: kinact (converted)) is 0.019 min⁻¹. The “formation of covalent CatK-inhibitor complex” value at Cathepsin K (6 h incubation, intact protein LC-MS) is on record as “formation of a covalent hCatK—inhibitor complex; also recorded: covalent complex formed”. This compound returned a Measured mass complex at Cathepsin K (CatK 3 μM, inhibitor 100 μM, 37° C., 6 h, deconvoluted ESI mass) of 24296.
Regarding `CC(C)(F)C[C@H](N[C@@H](c1ccc(-c2ccc(S(C)(=O)=O)cc2)cc1)C(F)(F)F)C(=O)NCC#N` [Compound 2, (S)—N-(cyanomethyl)-4-fluoro-4-methyl-2-(((S)-2,2,2-trifluoro-1-(4′-(methylsulfonyl)-[1,1′-biphenyl]-4-yl)ethyl)amino)pentanamide, reference compound], the IC50 against hCatK [1] was 0.57 ± 0.009 nM; on hCatS, 17.8 ± 0.303 nM; against hCatV it was 909 ± 105 nM.
With `C#CC1(NC(=O)[C@H](CC(C)(C)F)N[C@@H](c2ccc(-c3ccc(S(C)(=O)=O)cc3)cc2)C(F)(F)F)CC1` [Compound 3, (S)—N-(1-ethynylcyclopropyl)-4-fluoro-4-methyl-2-(((S)-2,2,2-trifluoro-1-(4′-(methylsulfonyl)-[1,1′-biphenyl]-4-yl)ethyl)amino)pentanamide], the half-inhibitory concentration (IC50) at hCatK [1] was 26200 ± 2240 nM; against hCatL, greater than 100000 nM; at hCatS, greater than 100000 nM; on hCatV it was greater than 100000 nM; against hCatB, greater than 100000 nM.
